Experimental data reported in PubChem BioAssay (NCI).
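1) Cells in 96-well plates. 2) Compound, 48 h, 5 concentrations. 3) Linear interpolation between surrounding doses. 4) Unreached endpoint = highest concentration. TGI marks complete inhibition of growth.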

Key:
Experiment in all cases: NCI tumour cell line growth inhibition, 48 h
[1] = system: HOP-62 NSCLC
[2] = system: ACHN renal
[3] = system: HL-60(TB) leukemia
[4] = system: HT29 colon
[5] = system: SNB-19 CNS
[6] = system: SF-268 CNS
[7] = system: KM12 colon
[8] = system: RPMI-8226 leukemia
[9] = system: K-562 leukemia
[10] = system: SN12C renal
[11] = system: EKVX NSCLC
[12] = system: SK-MEL-2 melanoma
[13] = system: A549 NSCLC
[14] = system: SK-MEL-5 melanoma
[15] = system: OVCAR-4 ovarian
[16] = system: HOP-92 NSCLC

SMILES | TGI [1] | TGI [2] | TGI [3] | TGI [4] | TGI [5] | TGI [6] | TGI [7] | TGI [8] | TGI [9] | TGI [10] | TGI [11] | TGI [12] | TGI [13] | TGI [14] | TGI [15] | TGI [16]
Cc1cc(N(CCC#N)CCC#N)ccc1/C=C(\NC(=O)/C=C/c1ccccc1)C(N)=O | > 100 µM | > 100 µM | > 100 µM | > 100 µM | > 100 µM | > 100 µM | > 100 µM | > 100 µM | > 100 µM | > 100 µM | > 100 µM | > 100 µM | > 100 µM | > 100 µM | – | –
CCOC(=O)CC(C)C1(C(=O)OCC)CCCCC1=O (configuration not stated) | > 100 µM | > 100 µM | > 100 µM | > 100 µM | > 100 µM | > 100 µM | > 100 µM | 60.6 µM | > 100 µM | > 100 µM | > 100 µM | > 100 µM | > 100 µM | > 100 µM | > 100 µM | –
CC1=CCC(O)C=CC(C)C(O)C(C)C=C(C)C(=O)c2c(O)c(C)cc3c2C(=O)C(N)=C(NC(=O)/C=C\C=C/C=CC(C)C(O)CC1=O)C3=O (configuration not stated) | > 100 µM | > 100 µM | 38.6 µM | > 100 µM | > 100 µM | > 100 µM | > 100 µM | > 100 µM | > 100 µM | > 100 µM | > 100 µM | > 100 µM | > 100 µM | > 100 µM | > 100 µM | > 100 µM
CC(=O)O[C@H]1C(=O)[C@@]2(C)C(C(OC(=O)c3ccccc3)[C@]3(O)CC(OC(=O)C(O)C(NC(=O)c4ccc(C(F)(F)F)cc4)c4ccccc4)C(C)=C1C3(C)C)[C@]1(OC(C)=O)CO[C@@H]1C[C@@H]2O (some centres not stated) | 0.506 µM | > 37.5 µM | > 37.5 µM | 0.237 µM | > 37.5 µM | 5.3 µM | 0.202 µM | 5.88 µM | 14.8 µM | 11.6 µM | – | 0.284 µM | > 37.5 µM | 3.8 µM | > 37.5 µM | > 37.5 µM
COC(=O)CC1N=C(NC#N)N(CCc2c[nH]c3ccccc23)C1=O (configuration not stated) | > 100 µM | > 100 µM | > 100 µM | > 100 µM | > 100 µM | > 100 µM | > 100 µM | > 100 µM | > 100 µM | > 100 µM | > 100 µM | – | > 100 µM | > 100 µM | > 100 µM | –
Cc1cc(NS(=O)(=O)c2ccc(Nc3c4ccccc4nc4c(C(=O)N5CCN(CCO)CC5)cccc34)cc2)no1 | > 100 µM | > 100 µM | > 100 µM | > 100 µM | > 100 µM | > 100 µM | > 100 µM | – | > 100 µM | > 100 µM | > 100 µM | > 100 µM | > 100 µM | > 100 µM | > 100 µM | > 100 µM
C[Si](C)(C)OC1CC(=O)OC1n1cc(F)c(=O)[nH]c1=O (configuration not stated) | > 100 µM | > 100 µM | > 100 µM | > 100 µM | > 100 µM | > 100 µM | > 100 µM | 40.4 µM | > 100 µM | > 100 µM | > 100 µM | > 100 µM | > 100 µM | > 100 µM | > 100 µM | –
CN(C)CC1CCCC(CN(C)C)C1OC(=O)c1ccccc1 (configuration not stated) | > 100 µM | > 100 µM | > 100 µM | > 100 µM | – | > 100 µM | > 100 µM | > 100 µM | > 100 µM | > 100 µM | > 100 µM | > 100 µM | > 100 µM | > 100 µM | > 100 µM | > 100 µM
O=c1cc(-c2ccc(Oc3ccccc3)cc2)[nH]c2cc3c(cc12)OCO3 | > 100 µM | > 100 µM | > 100 µM | > 100 µM | > 100 µM | > 100 µM | – | > 100 µM | > 100 µM | > 100 µM | > 100 µM | > 100 µM | > 100 µM | > 100 µM | > 100 µM | –
O=C(Nc1ccccc1-c1nc2ccccc2[nH]c1=O)c1ccccc1 | 35.9 µM | 45 µM | – | > 100 µM | 60.1 µM | 64.8 µM | > 100 µM | 44.9 µM | > 100 µM | 69.1 µM | 70.3 µM | 56 µM | 69.9 µM | > 100 µM | 50.6 µM | 51.4 µM
Nc1nc([O-])c2c(n1)[n+](C1OC(CO)C(O)C1O)cn2CCO (configuration not stated) | > 100 µM | > 100 µM | > 100 µM | > 100 µM | – | > 100 µM | > 100 µM | > 100 µM | > 100 µM | > 100 µM | > 100 µM | > 100 µM | > 100 µM | > 100 µM | > 100 µM | > 100 µM
CN=C(SC)N(C)c1nc(=[N+](C)C)ss1 | > 100 µM | > 100 µM | > 100 µM | > 100 µM | > 100 µM | > 100 µM | > 100 µM | – | 69 µM | > 100 µM | > 100 µM | > 100 µM | > 100 µM | > 100 µM | – | > 100 µM
